According to patent US8933228B2, “Respiratory formulations and compounds for use therein” (Respivert, Ltd., priority 2010, dated 2015):

Tests used:
[1] = test system: IL-8 release in d-U937 cells; assay: LPS-induced IL-8 release in d-U937 cells; assay type: cell-based; conditions: Homo sapiens, dU937; d-U937 cells, LPS 0.1 μg/mL, 4 hr; read-out: d-U937 (LPS) IL-8 IC50
Protocol: (§1) U937 cells, a human monocytic cell line, were differentiated to macrophage-type cells by incubation with phorbol myristate acetate (PMA; 100 ng/mL) for 48 to 72 hr, whereupon the cells become adherent. […] Coli: O111:B4, Sigma) for 4 hr. The supernatant was collected for determination of TNFα and IL-8 concentrations by sandwich ELISA (Duo-set, R&D systems). […] The relative 50% effective concentration (REC50) was determined from the resultant concentration-response curve. The inhibition of IL-8 production was calculated at each concentration of test compound by comparison with vehicle control.

cSrc enzyme = cSrc enzyme (Homo sapiens (Human), UniProt P12931); assay: c-SRC enzyme inhibition assay (FRET, Z'-LYTE); assay type: biochemical; conditions: read-out: Enzyme Profile: IC50 Values cSrc
[2] = test system: TNFα release in d-U937 cells; assay: LPS-induced TNFα release in d-U937 cells; assay type: cell-based; conditions: Homo sapiens, dU937, LPS 0.1 μg/mL, 4 hr, relative to 10 μg/mL BIRB796, read-out: d-U937 (LPS) TNFα REC50
Protocol: as §1

[3] = test system: ICAM-1 expression in BEAS2B cells; assay: Poly I:C-induced ICAM-1 induction in BEAS2B cells; assay type: cell-based; conditions: Homo sapiens, BEAS-2B; BEAS2B cells, poly I:C 1 μg/mL, 18 hr; read-out: BEAS2B (polyIC) ICAM1 IC50
Protocol: Poly I:C (1 μg/mL) (Invivogene Ltd., San Diego, Calif.) was transfected into BEAS2B cells (human bronchial epithelial cells, ATCC) with Oligofectamine (Invitrogen, Carlsbad, Calif.). Cells were pre-incubated with final concentrations of test compounds for 2 hr and the level of ICAM1 expression on the cell surface was determined by cell-based ELISA. […] The cells were washed with PBS-Tween and incubated with the secondary antibody (HRP-conjugated anti-rabbit IgG, Dako Ltd., Glostrup, Denmark).

HRV16 = assay: Rhinovirus-titre assay; assay type: cell-based, human rhinovirus; conditions: HRV16; for inhibition at 0.04 µg/mL: Human rhinovirus sp., cell not marked b, test compounds 0.04 μg/mL per method (footnote b, 0.2 μg/mL), read-out: HRV titre (inhibitory %): % inhibition observed vs. HRV16 infection control; for NBEC (HRV) HRV titre Relative anti-viral activity: at 0.04 μg/mL vs. pleconaril at 0.1 μg/mL
Protocol: MRC5 cells (human lung fibroblast, ATCC) were infected with 1 MOI (multiplicity of infection of 1.0) of HRV16 and incubated for 1 hr at 33° C. with gentle shaking to stimulate adsorption. The cells were then washed with PBS, fresh media was added and the cells were incubated for a further 96 hr. The supernatant was collected and 10-fold serial dilutions of virus containing supernatant were prepared. All titrations were performed by infecting confluent Hela cell monolayers with serially diluted supernatant (10^−1-10^−5) and assessing the cytopathic effect by visual inspection 4 days after infection. The amount of virus required to infect 50% of Hela cells was calculated in each treatment as TCID50. Test compounds (0.04 μg/mL) were added 2 hr before HRV infection and 1 hr after infection when non-infected HRV was washed out. The anti-HRV activity of each test compound was determined as the difference of the log TCID50 of HRV16 in the presence of the compound with the log TCID50 of HRV16 in the absence of compound. […]

p38 MAPK γ (MAPK12) = p38 MAPK γ (MAPK12) (Homo sapiens (Human), UniProt P53778); assay: Enzyme inhibition assay (FRET, Z-LYTE), p38 MAPK gamma; assay type: biochemical; conditions: read-out: Enzyme Profile: IC50 Values p38γ
Protocol: (§2) The enzyme inhibitory activity of test compounds was determined by fluorescence resonance energy transfer (FRET) using synthetic peptides labelled with both donor and acceptor fluorophores (Z-LYTE, Invitrogen). Recombinant, phosphorylated p38 MAPK γ (MAPK12:Millipore) was diluted in HEPES buffer, mixed with compound at the desired final concentrations and incubated for 2 hr at RT. The FRET peptide (2 μM) and ATP (100 μM) were next added to the enzyme/compound mixture and incubated for 1 hr. Development reagent (protease) was added for 1 hr prior to detection in a fluorescence microplate reader. The site-specific protease only cleaves non-phosphorylated peptide and eliminates the FRET signal. Phosphorylation levels of each reaction were calculated using the ratio of coumarin emission (donor) over fluorescein emission (acceptor) with high ratios indicating high phosphorylation levels and low ratios indicating low phosphorylation levels.

[4] = test system: Differentiated U937 cells; assay: MTT assay: cell viability; assay type: cell-based, human; conditions: 1 μg/ml; for d-U937 MTT Assay 4 h: 5% FCS; for d-U937 MTT Assay 24 h: 10% FCS
Protocol: Differentiated U937 cells were pre-incubated with each test compound under two protocols: the first for 4 hr in 5% FCS and the second in 10% FCS for 24 h. The supernatant was replaced with 200 μL of new media and 10 μL of MTT stock solution (5 mg/mL) was added to each well. After incubation for 1 hr the media were removed, 200 μL of DMSO was added to each well and the plates were shaken lightly for 1 hr prior to reading the absorbance at 550 nm. The percentage loss of cell viability was calculated for each well relative to vehicle (0.5% DMSO) treatment. Consequently an apparent increase in cell viability for drug treatment relative to vehicle is tabulated as a negative percentage.

HCK enzyme = HCK enzyme (Homo sapiens (Human), UniProt P08631); assay: HCK enzyme inhibition assay (FRET, Z'-LYTE); assay type: biochemical; conditions: read-out: Enzyme Profile: IC50 Values HCK
[5] = test system: TNFα release in THP-1 cells; assay: LPS-induced TNFα release in THP-1 cells; assay type: cell-based; conditions: Homo sapiens; THP-1 cells, LPS 3 μg/mL, 4 hr; read-out: THP1 (LPS) TNFα IC50
Protocol: The inhibition of TNFα production was calculated at each concentration by comparison with vehicle control.

p38 MAPK alpha (MAPK14) = p38 MAPK alpha (MAPK14) (Homo sapiens (Human), UniProt Q16539); assay: Enzyme inhibition assay (FRET, Z-LYTE), p38 MAPK alpha via MAPKAP-K2 activation; assay type: biochemical; conditions: read-out: Enzyme Profile: IC50 Values p38α
Protocol: as §2
For p38 MAPK alpha (MAPK14: Invitrogen), enzyme activity was evaluated indirectly by determining activation/phosphorylation of the down-stream molecule, MAPKAP-K2. The p38 MAPK a protein was mixed with compound for 2 hr at RT. […] Development reagent was then added and the mixture incubated for 1 hr before detection by fluorescence completed the assay protocol.
The enzyme inhibitory activity of compound was determined by fluorescence resonance energy transfer (FRET) using synthetic peptides labelled with both donor and acceptor fluorophores (Z′-LYTE, Invitrogen).

CC(C)(C)c1cc(NC(=O)Nc2ccc(Oc3ccnc4[nH]c(=O)[nH]c34)c3ncccc23)n(-c2ccccc2)n1 [Example 4, 1-(3-tert-butyl-1-phenyl-1H-pyrazol-5-yl)-3-(8-(2-oxo-2,3-dihydro-1H-imidazo [4,5-b]pyridin-7-yloxy)quinolin-5-yl) urea]
IC50 [1]: 378 nM
IC50 (cSrc enzyme): 0.9 nM
EC50 [2]: 171 nM
IC50 [3]: 581 nM
inhibition at 0.04 µg/mL (HRV16): 60%
NBEC (HRV) HRV titre Relative anti-viral activity (HRV16): 0.7
IC50 (p38 MAPK γ (MAPK12)): 214 nM
d-U937 MTT Assay 4 h [4]: − (− and + indicate the result is below and above the no significant effect threshold, respectively (<30% inhibition at a concentration of 1 μg/ml))
d-U937 MTT Assay 24 h [4]: − (− and + indicate the result is below and above the no significant effect threshold, respectively (<30% inhibition at a concentration of 1 μg/ml))
IC50 (HCK enzyme): 7 nM
IC50 [5]: 185 nM
IC50 (p38 MAPK alpha (MAPK14)): 18 nM

CC(C)(C)c1cc(NC(=O)Nc2ccc(Oc3ccnc4[nH]c(=O)cnc34)c3ccccc23)n(-c2ccccc2)n1 [Example 5, 1-(3-(tert-butyl)-1-phenyl-1H-pyrazol-5-yl)-3-(4-((3-oxo-3,4-dihydropyrido[2,3-b]pyrazin-8-yl)oxy)naphthalen-1-yl) urea]
IC50 [1]: 4.1 nM
IC50 (cSrc enzyme): 5 nM
EC50 [2]: 6.2 nM
IC50 [3]: 6.6 nM
inhibition at 0.04 µg/mL (HRV16): 36%
IC50 (p38 MAPK γ (MAPK12)): 43 nM
d-U937 MTT Assay 4 h [4]: − (− and + indicate the result is below and above the no significant effect threshold, respectively (<30% inhibition at a concentration of 1 μg/ml))
d-U937 MTT Assay 24 h [4]: − (− and + indicate the result is below and above the no significant effect threshold, respectively (<30% inhibition at a concentration of 1 μg/ml))
IC50 (HCK enzyme): 3 nM
IC50 [5]: 13 nM
IC50 (p38 MAPK alpha (MAPK14)): 2 nM

Cc1nc2c(Oc3ccc(NC(=O)Nc4cc(C(C)(C)C)nn4-c4ccccc4)c4ccccc34)ccnc2[nH]c1=O [Example 7, 1-(3-(tert-butyl)-1-phenyl-1H-pyrazol-5-yl)-3-(4-((2-methyl-3-oxo-3,4-dihydropyrido[2,3-b]pyrazin-8-yl)oxy)naphthalen-1-yl)urea]
IC50 [1]: 4.2 nM
IC50 (cSrc enzyme): 7 nM
EC50 [2]: 1.7 nM
IC50 [3]: 3 nM
inhibition at 0.04 µg/mL (HRV16): 60%
IC50 (p38 MAPK γ (MAPK12)): 100 nM
d-U937 MTT Assay 4 h [4]: − (− and + indicate the result is below and above the no significant effect threshold, respectively (<30% inhibition at a concentration of 1 μg/ml))
d-U937 MTT Assay 24 h [4]: − (− and + indicate the result is below and above the no significant effect threshold, respectively (<30% inhibition at a concentration of 1 μg/ml))
IC50 (HCK enzyme): 3 nM
IC50 [5]: 7 nM
IC50 (p38 MAPK alpha (MAPK14)): 3 nM

Cc1ccc(-n2nc(C(C)(C)C)cc2NC(=O)Nc2ccc(Oc3ccnc4[nH]c(=O)c(C)nc34)c3ccccc23)cc1 [Example 8, 1-(3-(tert-butyl)-1-(p-tolyl)-1H-pyrazol-5-yl)-3-(4-((2-methyl-3-oxo-3,4-dihydropyrido[2,3-b]pyrazin-8-yl)oxy)naphthalen-1-yl)urea]
IC50 [1]: 1.7 nM
IC50 (cSrc enzyme): 7 nM
EC50 [2]: 0.3 nM
IC50 [3]: 0.6 nM
inhibition at 0.04 µg/mL (HRV16): 91%
IC50 (p38 MAPK γ (MAPK12)): 99 nM
d-U937 MTT Assay 4 h [4]: − (− and + indicate the result is below and above the no significant effect threshold, respectively (<30% inhibition at a concentration of 1 μg/ml))
d-U937 MTT Assay 24 h [4]: − (− and + indicate the result is below and above the no significant effect threshold, respectively (<30% inhibition at a concentration of 1 μg/ml))
IC50 (HCK enzyme): 5 nM
IC50 [5]: 2.5 nM
IC50 (p38 MAPK alpha (MAPK14)): 7 nM

COc1ccc(-n2nc(C(C)(C)C)cc2NC(=O)Nc2ccc(Oc3ccnc4[nH]c(=O)[nH]c34)c3ccccc23)cc1 [Example 9]
IC50 [1]: 27 nM
IC50 (cSrc enzyme): 7 nM
EC50 [2]: 3.1 nM
IC50 [3]: 24 nM
inhibition at 0.04 µg/mL (HRV16): 36%
NBEC (HRV) HRV titre Relative anti-viral activity (HRV16): 3.2
IC50 (p38 MAPK γ (MAPK12)): 119 nM
d-U937 MTT Assay 4 h [4]: − (− and + indicate the result is below and above the no significant effect threshold, respectively (<30% inhibition at a concentration of 1 μg/ml))
d-U937 MTT Assay 24 h [4]: − (− and + indicate the result is below and above the no significant effect threshold, respectively (<30% inhibition at a concentration of 1 μg/ml))
IC50 (HCK enzyme): < 2 nM
IC50 [5]: 1.6 nM
IC50 (p38 MAPK alpha (MAPK14)): 21 nM

COc1ccc(-n2nc(C(C)(C)C)cc2NC(=O)Nc2ccc(Oc3ccnc4[nH]c(=O)n(C)c34)c3ccccc23)cc1 [Example 10]
IC50 [1]: 1 nM
IC50 (cSrc enzyme): 7 nM
EC50 [2]: 1.3 nM
IC50 [3]: 6 nM
inhibition at 0.04 µg/mL (HRV16): 91%
IC50 (p38 MAPK γ (MAPK12)): 45 nM
d-U937 MTT Assay 4 h [4]: − (− and + indicate the result is below and above the no significant effect threshold, respectively (<30% inhibition at a concentration of 1 μg/ml))
d-U937 MTT Assay 24 h [4]: − (− and + indicate the result is below and above the no significant effect threshold, respectively (<30% inhibition at a concentration of 1 μg/ml))
IC50 (HCK enzyme): 3 nM
IC50 [5]: 0.6 nM
IC50 (p38 MAPK alpha (MAPK14)): 6 nM
